According to PubChem BioAssay (NCI):
“And” between values parts separate entries of the source, which are not always exact repeats. Equal entries are not always repeated.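 48-hour exposure; five concentrations; linearly interpolated endpoints. At the GI50, growth is halved. TGI marks complete inhibition of growth.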 Where a SMILES comes first, the peptide text is derived from it. The star is where a group is joined. Boc = CC(C)(C)OC(=O)*

Each compound was assayed on SF-539 CNS (assay: growth of human tumour cells (NCI), 48 h).
`O=C(Nc1cc(C(F)(F)F)ccc1Cl)c1cccc(NC2=C(Cl)C(=O)N(Cc3ccccc3)C2=O)c1` showed a GI50 of 26.4 µM and a TGI of 53.7 µM.
In the case of `CC1(Br)Cc2ccccc2C1=O` (centres undefined), the TGI is reported as 16.8 µM.
For `COc1ccc2c(c1)c[n+](C)c1c3cc(OC)c(OC)cc3ccc21`, the GI50 was 1.95 µM and 6.15 µM and the TGI was 3.5 µM and 13.9 µM.
In the case of `CCOC(=O)/C=C/c1ccc(C#Cc2ccccc2)cc1`, the GI50 is reported as 1.54 µM and the TGI is reported as > 100 µM.
In the case of `C[C@H]1CN[C@@H]2[C@@H](C)[C@H]3[C@@H](C[C@H]4[C@@H]5CC[C@H]6C[C@@H](N)CC[C@]6(C)[C@H]5CC[C@]34C)O[C@@]2(O)C1`, the TGI is reported as 3.27 µM.
For `O=C1c2cc3c(cc2-c2c1c1cc(Cl)c(Cl)cc1c(=O)n2C[C@H](O)CO)OCO3`, the GI50 was < 0.01 µM and the TGI was 0.0175 µM.
With `COc1ccc(/C(=C\C=C(C#N)C#N)Sc2nc3ccccc3s2)cc1` the GI50 was 1.19 µM and the TGI was 2.59 µM.
In the case of `CC(C)OC(=O)[C@H](C)NP(=O)(OC[C@H]1O[C@@H](n2ccc(=O)[nH]c2=O)[C@](C)(F)[C@@H]1O)Oc1ccccc1` (some centres undefined), the GI50 is reported as > 100 µM and the TGI is reported as > 100 µM.
`O=C(O)c1ccc(C(=O)O)c2c(C(=O)O)ccc(C(=O)O)c12` was tested, and the TGI was > 100 µM.
Compound `S=c1[nH]c2c(Cl)c(Cl)c(Cl)c(Cl)c2[nH]1` has a TGI of 26.3 µM.
`Cc1cc(N(CCCNc2ccnc3cc(Cl)ccc23)Cc2ccc3c(c2)OCO3)nc(N2CCOCC2)n1` was tested, and the GI50 was 0.251 µM and the TGI was 0.66 µM.
`O=C(/C=C/C=C/c1ccccc1)c1ccccc1` was tested, and the TGI was 32.8 µM.
Compound `O=C(Nc1ccc(Cl)c(C(F)(F)F)c1)c1ccc(NC2=C(Cl)C(=O)N(Cc3ccccc3)C2=O)cc1` has a GI50 of 8.92 µM and a TGI of 23.9 µM.
With `COC(=O)C(C)NC(=O)C(CCSC)NC(=O)C(Cc1ccccc1)NC(=O)OC(C)(C)C` (stereo not drawn) (Boc-Phe-Met-Ala-OMe; configuration not given here) the TGI was > 100 µM.
Work on `Cc1nc2cc(Nc3nc(Nc4ccc(F)cc4)nc(-c4cccs4)n3)ccc2n1Cc1ccccc1` yielded a GI50 of 3.27 µM and a TGI of 12.9 µM.
`Cn1cc(-c2csc(-c3c[nH]c4ccc(Br)cc34)n2)c2cnccc21` gave a GI50 of 2.14 µM and a TGI of 4.6 µM.

Each compound was assayed on ACHN renal (assay: growth of human tumour cells (NCI), 48 h).
With `Cn1c(Nc2ccc(C(F)(F)F)cc2)nc2cc(Oc3ccnc(-c4ncc(C(F)(F)F)[nH]4)c3)ccc21` the GI50 was 0.0354 µM and the TGI was 11.7 µM.
`COc1ccc(-c2nsc3c2NC(=O)CC3c2cccc(OC)c2)cc1` (centres undefined) was tested, and the GI50 was 4.87 µM and the TGI was > 100 µM.
`C[C@@]12CCC[C@@](C)(C(=O)O)C1CC[C@]13CC(=O)[C@](CO)(C1)[C@@H](O)CC32` (some centres undefined) was tested, and the GI50 was > 100 µM and the TGI was > 100 µM.
`O=[N+]([O-])c1ccc(CI)cc1` showed a GI50 of 1.96 µM and a TGI of 4.12 µM.
`CN(C)C/C=C/C(=O)Nc1cc2c(Nc3ccc(F)c(Cl)c3)ncnc2cc1O[C@H]1CCOC1` was tested, and the GI50 was < 0.01 µM and 0.00252 µM and the TGI was 13.1 µM and > 10 µM.
`COc1cc(/C=C/C(=O)c2cccc(-n3cc(-c4ccc(Cl)cc4)[nH]c3=O)c2)ccc1O` showed a GI50 of 2.19 µM and a TGI of 4.95 µM.
For `CCN(Cc1ccc(F)cc1)c1ccc(CO)c(Br)c1`, the GI50 was 10.2 µM and the TGI was 42 µM.
With `Cc1ccc2c(C3C(C#N)=C(N)Oc4cc5ccccc5cc43)cc(=O)oc2c1` (centres undefined) the GI50 was 4.54 µM and the TGI was > 100 µM.
For `COC(=O)c1cc2c(s1)-c1nccc3c1c(nc1ccccc13)C2=O`, the GI50 was > 100 µM and the TGI was > 100 µM.
`COc1ccc(-c2cc(/C=C/C(=O)c3ccc(OC)c(OC)c3)[nH]n2)cc1` was tested, and the GI50 was 1.68 µM and the TGI was 3.83 µM.
With `Oc1ccc(Nc2c3ccccc3nc3occ(Cl)c23)cc1` the GI50 was 15.2 µM and the TGI was > 100 µM.
For `O=C(Nc1cc(C(F)(F)F)ccc1Cl)c1cccc(NC2=C(Cl)C(=O)N(Cc3ccccc3)C2=O)c1`, the GI50 was 99.9 µM and the TGI was > 100 µM.
`CC1(Br)Cc2ccccc2C1=O` (centres undefined) showed a TGI of 16.8 µM.
In the case of `COc1ccc2c(c1)c[n+](C)c1c3cc(OC)c(OC)cc3ccc21`, the GI50 is reported as 2.42 µM and 9.86 µM and the TGI is reported as 5.01 µM and 23.8 µM.
`CCOC(=O)/C=C/c1ccc(C#Cc2ccccc2)cc1` was tested, and the GI50 was > 100 µM and the TGI was > 100 µM.
For `C[C@H]1CN[C@@H]2[C@@H](C)[C@H]3[C@@H](C[C@H]4[C@@H]5CC[C@H]6C[C@@H](N)CC[C@]6(C)[C@H]5CC[C@]34C)O[C@@]2(O)C1`, the TGI was 9.3 µM.
`O=C1c2cc3c(cc2-c2c1c1cc(Cl)c(Cl)cc1c(=O)n2C[C@H](O)CO)OCO3` was tested, and the GI50 was < 0.01 µM and the TGI was 0.0128 µM.
For `CC(C)OC(=O)[C@H](C)NP(=O)(OC[C@H]1O[C@@H](n2ccc(=O)[nH]c2=O)[C@](C)(F)[C@@H]1O)Oc1ccccc1` (some centres undefined), the GI50 was > 100 µM and the TGI was > 100 µM.
With `O=C(O)c1ccc(C(=O)O)c2c(C(=O)O)ccc(C(=O)O)c12` the TGI was > 100 µM.
`S=c1[nH]c2c(Cl)c(Cl)c(Cl)c(Cl)c2[nH]1` gave a TGI of 40.7 µM.
Compound `O=C(Nc1ccc(Cl)c(C(F)(F)F)c1)c1ccc(NC2=C(Cl)C(=O)N(Cc3ccccc3)C2=O)cc1` has a GI50 of 4.18 µM and a TGI of 15.2 µM.
For `COC(=O)C(C)NC(=O)C(CCSC)NC(=O)C(Cc1ccccc1)NC(=O)OC(C)(C)C` (stereo not drawn) (Boc-Phe-Met-Ala-OMe; configuration not given here), the TGI was > 100 µM.
In the case of `Cc1nc2cc(Nc3nc(Nc4ccc(F)cc4)nc(-c4cccs4)n3)ccc2n1Cc1ccccc1`, the GI50 is reported as 3.86 µM and the TGI is reported as 59.9 µM.
`Oc1ccc2ccccc2c1N=Nc1ccc(Br)cc1` was tested, and the TGI was > 100 µM.

The compounds below were run on NCI-H460 lung (assay: growth of human tumour cells (NCI), 48 h).
`Cn1c(Nc2ccc(C(F)(F)F)cc2)nc2cc(Oc3ccnc(-c4ncc(C(F)(F)F)[nH]4)c3)ccc21` gave a GI50 of 0.197 µM and a TGI of 7.61 µM.
With `COc1ccc(-c2nsc3c2NC(=O)CC3c2cccc(OC)c2)cc1` (centres undefined) the GI50 was 0.534 µM and the TGI was 71.8 µM.
In the case of `C[C@@]12CCC[C@@](C)(C(=O)O)C1CC[C@]13CC(=O)[C@](CO)(C1)[C@@H](O)CC32` (some centres undefined), the GI50 is reported as > 100 µM and the TGI is reported as > 100 µM.
`O=[N+]([O-])c1ccc(CI)cc1` gave a GI50 of 3.2 µM and a TGI of 10.5 µM.
`CN(C)C/C=C/C(=O)Nc1cc2c(Nc3ccc(F)c(Cl)c3)ncnc2cc1O[C@H]1CCOC1` was tested, and the GI50 was 2.87 µM and 3.46 µM and the TGI was 11.7 µM and > 10 µM.
With `COc1cc(/C=C/C(=O)c2cccc(-n3cc(-c4ccc(Cl)cc4)[nH]c3=O)c2)ccc1O` the GI50 was 6.43 µM and the TGI was 21.7 µM.
Work on `CCN(Cc1ccc(F)cc1)c1ccc(CO)c(Br)c1` yielded a GI50 of 0.144 µM and a TGI of 12.1 µM.
Compound `Cc1ccc2c(C3C(C#N)=C(N)Oc4cc5ccccc5cc43)cc(=O)oc2c1` (centres undefined) has a GI50 of 0.883 µM and a TGI of 15.5 µM.
For `COC(=O)c1cc2c(s1)-c1nccc3c1c(nc1ccccc13)C2=O`, the GI50 was > 100 µM and the TGI was > 100 µM.
`COc1ccc(-c2cc(/C=C/C(=O)c3ccc(OC)c(OC)c3)[nH]n2)cc1` was tested, and the GI50 was 1.64 µM and the TGI was 4.34 µM.
`Oc1ccc(Nc2c3ccccc3nc3occ(Cl)c23)cc1` gave a GI50 of 3.68 µM and a TGI of 28.9 µM.
In the case of `O=C(Nc1cc(C(F)(F)F)ccc1Cl)c1cccc(NC2=C(Cl)C(=O)N(Cc3ccccc3)C2=O)c1`, the GI50 is reported as 38.2 µM and the TGI is reported as > 100 µM.
With `CC1(Br)Cc2ccccc2C1=O` (centres undefined) the GI50 was > 100 µM and the TGI was > 100 µM.
In the case of `COc1ccc2c(c1)c[n+](C)c1c3cc(OC)c(OC)cc3ccc21`, the GI50 is reported as 1.23 µM and 2.7 µM and the TGI is reported as 2.72 µM and 10.9 µM.
`CCOC(=O)/C=C/c1ccc(C#Cc2ccccc2)cc1` was tested, and the GI50 was 66.1 µM and the TGI was > 100 µM.
Work on `C[C@H]1CN[C@@H]2[C@@H](C)[C@H]3[C@@H](C[C@H]4[C@@H]5CC[C@H]6C[C@@H](N)CC[C@]6(C)[C@H]5CC[C@]34C)O[C@@]2(O)C1` yielded a TGI of 7.78 µM.
With `O=C1c2cc3c(cc2-c2c1c1cc(Cl)c(Cl)cc1c(=O)n2C[C@H](O)CO)OCO3` the GI50 was < 0.01 µM and the TGI was 0.0268 µM.
`COc1ccc(/C(=C\C=C(C#N)C#N)Sc2nc3ccccc3s2)cc1` was tested, and the GI50 was 11.7 µM and the TGI was > 50 µM.
In the case of `CC(C)OC(=O)[C@H](C)NP(=O)(OC[C@H]1O[C@@H](n2ccc(=O)[nH]c2=O)[C@](C)(F)[C@@H]1O)Oc1ccccc1` (some centres undefined), the GI50 is reported as > 100 µM and the TGI is reported as > 100 µM.
`O=C(O)c1ccc(C(=O)O)c2c(C(=O)O)ccc(C(=O)O)c12` was tested, and the TGI was > 100 µM.
For `S=c1[nH]c2c(Cl)c(Cl)c(Cl)c(Cl)c2[nH]1`, the TGI was 40.6 µM.
In the case of `Cc1cc(N(CCCNc2ccnc3cc(Cl)ccc23)Cc2ccc3c(c2)OCO3)nc(N2CCOCC2)n1`, the GI50 is reported as 0.318 µM and the TGI is reported as 14.1 µM.
In the case of `O=C(/C=C/C=C/c1ccccc1)c1ccccc1`, the TGI is reported as 49.5 µM.
`O=C(Nc1ccc(Cl)c(C(F)(F)F)c1)c1ccc(NC2=C(Cl)C(=O)N(Cc3ccccc3)C2=O)cc1` showed a GI50 of 7.04 µM and a TGI of 42.3 µM.
In the case of `COC(=O)C(C)NC(=O)C(CCSC)NC(=O)C(Cc1ccccc1)NC(=O)OC(C)(C)C` (stereo not drawn) (Boc-Phe-Met-Ala-OMe; configuration not given here), the GI50 is reported as 40.6 µg/mL and the TGI is reported as > 100 µM.
